Test results: PMC11606603, “The membrane domains of mammalian adenylyl cyclases are lipid receptors” (eLife, 2024)
“And” between values parts separate entries of the source, which are not always exact repeats. Identical values can stand only once.

Columns and labels:
Format in all cases: biochemical
[1] = target: T1, mAC3 (Homo sapiens, UniProt O60266); experiment: AC assay, Gsα-stimulated mAC3 in membranes from transfected HEK293 cells
T1 construct: Human mAC genes were from GenScript and fitted with a C-terminal FLAG-tag; FLAG (C); made in house; host or cells: HEK293, permanently transfected; membrane preparation
How it was run: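 cAMP formation was quantified by HTRF against a cAMP standard curve, with EC50 or IC50 derived by curve fitting. Reactions contained 1 mM ATP, 2 mM MgCl2, 3 mM creatine phosphate, 60 μg/ml creatine kinase and 50 mM MOPS pH 7.5, using membranes of stably transfected HEK293 cells carrying FLAG-tagged human AC.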

[2] = target: T2, mAC5 (Homo sapiens, UniProt O95622); experiment: AC assay, Gsα-stimulated mAC5 in membranes from transfected HEK293 cells; conditions: 20µM fatty acid concentration
T2 construct: Human mAC genes were from GenScript and fitted with a C-terminal FLAG-tag; FLAG (C); made in house; host or cells: HEK293, permanently transfected; membrane preparation
How it was run: (§1)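 Human AC, FLAG-tagged, stably expressed in HEK293; membranes used as enzyme. 1 mM ATP, 2 mM MgCl2, ATP regeneration, MOPS pH 7.5; cAMP kit readout.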

[3] = target: T3, mAC9 (Homo sapiens, UniProt O60503); experiment: AC assay, Gsα-stimulated mAC9 in membranes from transfected HEK293 cells; conditions: for mAC9 activity (%);(100% = Gsα stimulation) stimulated by 300nM Gsα: single experiments
T3 construct: Human mAC genes were from GenScript and fitted with a C-terminal FLAG-tag; FLAG (C); made in house; host or cells: HEK293, permanently transfected; membrane preparation
How it was run: as §1

[4] = target: T4, mAC7 (Homo sapiens, UniProt P51828); experiment: AC assay, Gsα-stimulated mAC7 in membranes from transfected HEK293 cells; conditions: Figure 5-figure supplement 2 left, 20 µM
T4 construct: Human mAC genes were from GenScript and fitted with a C-terminal FLAG-tag; FLAG (C); made in house; host or cells: HEK293, permanently transfected; membrane preparation
How it was run: as §1

[5] = target: T5, mAC1 (Homo sapiens, UniProt Q08828); experiment: AC assay, Gsα-stimulated mAC1 in membranes from transfected HEK293 cells; conditions: 20 µM fatty acid; 300 nM Gsα; single experiments
T5 construct: Human mAC genes were from GenScript and fitted with a C-terminal FLAG-tag; FLAG (C); made in house; host or cells: HEK293, permanently transfected; membrane preparation
How it was run: as §1

[6] = target: T6, mAC4 (Homo sapiens, UniProt Q8NFM4); experiment: AC assay, Gsα-stimulated mAC4 in membranes from transfected HEK293 cells; conditions: 20 µM fatty acid; 300 nM Gsα; single experiments
T6 construct: Human mAC genes were from GenScript and fitted with a C-terminal FLAG-tag; FLAG (C); made in house; host or cells: HEK293, permanently transfected; membrane preparation
T6 sequence (Q8NFM4 1-1077): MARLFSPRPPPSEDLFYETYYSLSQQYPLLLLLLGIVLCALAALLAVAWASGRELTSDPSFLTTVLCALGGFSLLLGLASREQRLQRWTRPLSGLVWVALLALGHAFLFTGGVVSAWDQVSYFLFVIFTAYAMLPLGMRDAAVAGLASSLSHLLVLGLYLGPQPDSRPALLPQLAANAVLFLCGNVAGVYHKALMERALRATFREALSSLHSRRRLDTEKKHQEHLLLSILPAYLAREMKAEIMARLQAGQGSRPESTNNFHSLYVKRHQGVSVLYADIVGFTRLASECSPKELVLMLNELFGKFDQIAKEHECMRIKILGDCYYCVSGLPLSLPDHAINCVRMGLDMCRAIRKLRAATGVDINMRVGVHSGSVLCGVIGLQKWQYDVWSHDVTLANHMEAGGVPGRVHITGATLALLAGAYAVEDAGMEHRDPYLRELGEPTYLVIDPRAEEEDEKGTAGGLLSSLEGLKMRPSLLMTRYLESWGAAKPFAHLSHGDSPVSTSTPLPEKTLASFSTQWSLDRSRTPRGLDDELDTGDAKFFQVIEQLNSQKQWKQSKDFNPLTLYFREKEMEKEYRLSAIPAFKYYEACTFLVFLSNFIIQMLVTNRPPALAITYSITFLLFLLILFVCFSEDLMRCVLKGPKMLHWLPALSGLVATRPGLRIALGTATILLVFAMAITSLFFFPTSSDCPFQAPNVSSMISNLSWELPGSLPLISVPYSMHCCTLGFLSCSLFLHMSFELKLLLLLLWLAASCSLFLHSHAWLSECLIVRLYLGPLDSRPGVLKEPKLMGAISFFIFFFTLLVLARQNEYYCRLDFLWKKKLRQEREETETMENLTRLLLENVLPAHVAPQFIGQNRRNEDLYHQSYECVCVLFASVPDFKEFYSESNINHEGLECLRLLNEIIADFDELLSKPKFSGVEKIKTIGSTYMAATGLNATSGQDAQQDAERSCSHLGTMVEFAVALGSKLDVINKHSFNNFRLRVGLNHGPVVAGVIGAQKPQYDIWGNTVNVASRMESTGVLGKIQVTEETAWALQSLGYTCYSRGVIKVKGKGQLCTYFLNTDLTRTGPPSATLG
How it was run: as §1

[7] = target: T7, mAC2 (Homo sapiens, UniProt Q08462); experiment: AC assay, Gsα-stimulated mAC2 in membranes from transfected HEK293 cells
T7 construct: Human mAC genes were from GenScript and fitted with a C-terminal FLAG-tag; FLAG (C); made in house; host or cells: HEK293, permanently transfected; membrane preparation
How it was run: as §1

[8] = target: T8, mAC8 (Homo sapiens, UniProt P40145); experiment: AC assay, Gsα-stimulated mAC8 in membranes from transfected HEK293 cells; conditions: 20µM fatty acid concentration
T8 construct: Human mAC genes were from GenScript and fitted with a C-terminal FLAG-tag; FLAG (C); made in house; host or cells: HEK293, permanently transfected; membrane preparation
Description: hAC sequences were from NCBI were: ADCY1: NM_021116.3; ADCY2: NM_020546.2; ADCY3: NM_004036.4; ADCY4: NM_001198568.2; ADCY5: NM_183357.2; ADCY6: NM_015270.4; ADCY7: NM_001114.4; ADCY8: NM_001115.2; ADCY9: NM_001116.3. Human mAC genes were from GenScript and fitted with a C-terminal FLAG-tag. […] The gene was synthesized by GenScript. HEK293 cells were maintained in Dulbeccos Modified Eagle Medium (DMEM) with 10% fetal bovine serum at 37°C and 5% CO2. Transfection with AC plasmids was with PolyJet (SignaGen, Frederick, MD, USA). Permanent cell lines were generated by selection for 7 days with 600 µg/ml G418 and maintained with 300 µg/ml For membrane preparation, cells were tyrpsinized, collected by centrifugation (3000 × g, 5 min) and lysed and homogenized in 20 mM HEPES, pH 7.5, 1 mM Ethylenediaminetetraacetic acid (EDTA), 2 mM MgCl2, 1 mM Dithiothreitol (DTT), one tablet of cOmplete, EDTA-free (per 50 ml) and 250 mM sucrose by 20 strokes in a potter homogenizer on ice. Debris was removed (5 min at 1000 × g, 0°C), membranes were collected at 100,000 × g, 60 min at 0°C, suspended and stored at −80°C in 20 mM MOPS, pH 7.5, 0.5 mM EDTA, 2 mM MgCl2. […] Three cerebral cortices were dissected and homogenized in 4.5 ml cold 48 mM Tris–HCl, pH 7.4, 12 mM MgC1_2, and 0.1 mM Ethylene glycol-bis(β-aminoethyl ether)-N,N,N′,N′-tetraacetic acid (EGTA) with a Polytron hand disperser (Kinematica AG, Switzerland). […] The pellet was washed once with 5 ml 1 mM KHCO3. The final suspension in 2 ml 1 mM KHCO3 was stored in aliquots at −80°C.
In a volume of 10 μl, AC activities were measured using 1 mM ATP, 2 mM MgCl2, 3 mM creatine phosphate, 60 μg/ml creatine kinase, and 50 mM MOPS pH 7.5. The cAMP assay kit from Cisbio (Codolet, France) was used for detection according to the supplier’s instructions. For each assay, a cAMP standard curve was established. EC50 and IC50 values were calculated by GraphPad Prism version 8.4.3 for Windows, GraphPad Software, San Diego, CA, USA, https://www.graphpad.com .

[9] = target: T9, mAC6 (Homo sapiens, UniProt O43306); experiment: AC assay, Gsα-stimulated mAC6 in membranes from transfected HEK293 cells; conditions: 20µM fatty acid concentration
T9 construct: Human mAC genes were from GenScript and fitted with a C-terminal FLAG-tag; FLAG (C); made in house; host or cells: HEK293, permanently transfected; membrane preparation
How it was run: as §1

T5 sequence (Q08828 whole entry): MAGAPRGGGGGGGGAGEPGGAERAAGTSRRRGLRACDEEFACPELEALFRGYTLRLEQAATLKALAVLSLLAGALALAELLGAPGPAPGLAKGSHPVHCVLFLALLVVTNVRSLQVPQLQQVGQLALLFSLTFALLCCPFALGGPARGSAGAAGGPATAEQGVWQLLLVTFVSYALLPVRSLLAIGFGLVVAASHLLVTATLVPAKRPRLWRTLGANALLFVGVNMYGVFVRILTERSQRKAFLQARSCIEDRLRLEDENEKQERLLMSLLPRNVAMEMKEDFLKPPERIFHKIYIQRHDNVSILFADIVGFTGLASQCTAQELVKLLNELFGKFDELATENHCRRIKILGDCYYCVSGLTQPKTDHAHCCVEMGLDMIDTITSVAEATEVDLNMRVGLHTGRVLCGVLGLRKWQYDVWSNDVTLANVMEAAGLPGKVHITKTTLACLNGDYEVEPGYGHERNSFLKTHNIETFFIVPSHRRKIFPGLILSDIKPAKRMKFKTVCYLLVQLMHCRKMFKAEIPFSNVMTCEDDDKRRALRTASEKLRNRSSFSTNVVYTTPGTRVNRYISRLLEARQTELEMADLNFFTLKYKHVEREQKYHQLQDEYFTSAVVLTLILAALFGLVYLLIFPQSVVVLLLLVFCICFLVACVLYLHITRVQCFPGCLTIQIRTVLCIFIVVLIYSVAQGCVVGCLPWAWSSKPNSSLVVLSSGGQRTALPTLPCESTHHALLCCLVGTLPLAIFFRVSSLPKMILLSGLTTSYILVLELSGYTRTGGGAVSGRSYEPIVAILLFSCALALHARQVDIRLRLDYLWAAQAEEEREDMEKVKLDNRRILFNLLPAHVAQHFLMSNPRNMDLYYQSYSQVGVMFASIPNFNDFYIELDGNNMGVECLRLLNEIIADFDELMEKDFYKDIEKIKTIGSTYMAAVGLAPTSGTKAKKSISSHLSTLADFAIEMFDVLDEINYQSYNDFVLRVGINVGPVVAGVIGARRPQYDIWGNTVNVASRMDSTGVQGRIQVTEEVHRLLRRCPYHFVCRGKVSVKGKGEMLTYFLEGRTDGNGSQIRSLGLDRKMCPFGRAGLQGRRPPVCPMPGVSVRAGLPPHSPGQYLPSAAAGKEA
T1 sequence (O60266 whole entry): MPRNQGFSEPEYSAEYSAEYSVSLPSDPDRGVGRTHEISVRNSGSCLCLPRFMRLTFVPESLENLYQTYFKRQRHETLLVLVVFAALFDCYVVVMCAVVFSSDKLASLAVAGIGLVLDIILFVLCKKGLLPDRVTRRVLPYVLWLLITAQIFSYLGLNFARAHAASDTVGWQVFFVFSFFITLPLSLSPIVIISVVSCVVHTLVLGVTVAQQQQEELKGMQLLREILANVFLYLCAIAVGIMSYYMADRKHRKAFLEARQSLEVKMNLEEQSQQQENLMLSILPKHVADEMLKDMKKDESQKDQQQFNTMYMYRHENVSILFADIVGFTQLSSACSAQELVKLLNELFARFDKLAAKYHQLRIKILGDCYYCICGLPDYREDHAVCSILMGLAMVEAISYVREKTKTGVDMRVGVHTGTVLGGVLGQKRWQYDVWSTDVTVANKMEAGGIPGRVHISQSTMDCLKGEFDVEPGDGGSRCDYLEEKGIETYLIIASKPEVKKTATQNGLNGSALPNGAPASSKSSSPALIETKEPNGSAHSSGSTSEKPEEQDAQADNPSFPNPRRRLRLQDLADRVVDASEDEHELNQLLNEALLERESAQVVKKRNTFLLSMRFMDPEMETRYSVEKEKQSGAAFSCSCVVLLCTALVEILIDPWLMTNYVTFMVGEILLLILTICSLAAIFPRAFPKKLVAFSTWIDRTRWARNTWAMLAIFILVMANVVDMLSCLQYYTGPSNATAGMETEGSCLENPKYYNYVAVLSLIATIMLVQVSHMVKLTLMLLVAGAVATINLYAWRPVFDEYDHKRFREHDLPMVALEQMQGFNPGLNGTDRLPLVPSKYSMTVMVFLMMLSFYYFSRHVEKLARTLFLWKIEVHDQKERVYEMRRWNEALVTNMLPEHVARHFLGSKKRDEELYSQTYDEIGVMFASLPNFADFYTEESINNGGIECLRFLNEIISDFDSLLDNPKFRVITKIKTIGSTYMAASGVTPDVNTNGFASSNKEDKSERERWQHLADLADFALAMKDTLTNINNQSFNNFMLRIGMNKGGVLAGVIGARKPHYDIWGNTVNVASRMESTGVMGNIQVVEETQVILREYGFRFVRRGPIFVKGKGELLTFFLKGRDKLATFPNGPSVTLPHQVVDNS
T1 sequence (P63092 whole entry Q227L partner): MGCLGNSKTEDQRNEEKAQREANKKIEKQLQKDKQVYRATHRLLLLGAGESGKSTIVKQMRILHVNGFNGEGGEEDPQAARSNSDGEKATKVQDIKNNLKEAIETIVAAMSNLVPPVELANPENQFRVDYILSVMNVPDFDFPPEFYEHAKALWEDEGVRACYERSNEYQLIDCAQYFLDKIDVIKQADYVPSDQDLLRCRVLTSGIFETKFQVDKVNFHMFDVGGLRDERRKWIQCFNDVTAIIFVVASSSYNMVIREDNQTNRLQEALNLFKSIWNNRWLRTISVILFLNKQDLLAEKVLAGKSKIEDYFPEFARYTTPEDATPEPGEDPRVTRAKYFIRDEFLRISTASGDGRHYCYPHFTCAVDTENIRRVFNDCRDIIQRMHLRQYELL
T7 sequence (Q08462 whole entry): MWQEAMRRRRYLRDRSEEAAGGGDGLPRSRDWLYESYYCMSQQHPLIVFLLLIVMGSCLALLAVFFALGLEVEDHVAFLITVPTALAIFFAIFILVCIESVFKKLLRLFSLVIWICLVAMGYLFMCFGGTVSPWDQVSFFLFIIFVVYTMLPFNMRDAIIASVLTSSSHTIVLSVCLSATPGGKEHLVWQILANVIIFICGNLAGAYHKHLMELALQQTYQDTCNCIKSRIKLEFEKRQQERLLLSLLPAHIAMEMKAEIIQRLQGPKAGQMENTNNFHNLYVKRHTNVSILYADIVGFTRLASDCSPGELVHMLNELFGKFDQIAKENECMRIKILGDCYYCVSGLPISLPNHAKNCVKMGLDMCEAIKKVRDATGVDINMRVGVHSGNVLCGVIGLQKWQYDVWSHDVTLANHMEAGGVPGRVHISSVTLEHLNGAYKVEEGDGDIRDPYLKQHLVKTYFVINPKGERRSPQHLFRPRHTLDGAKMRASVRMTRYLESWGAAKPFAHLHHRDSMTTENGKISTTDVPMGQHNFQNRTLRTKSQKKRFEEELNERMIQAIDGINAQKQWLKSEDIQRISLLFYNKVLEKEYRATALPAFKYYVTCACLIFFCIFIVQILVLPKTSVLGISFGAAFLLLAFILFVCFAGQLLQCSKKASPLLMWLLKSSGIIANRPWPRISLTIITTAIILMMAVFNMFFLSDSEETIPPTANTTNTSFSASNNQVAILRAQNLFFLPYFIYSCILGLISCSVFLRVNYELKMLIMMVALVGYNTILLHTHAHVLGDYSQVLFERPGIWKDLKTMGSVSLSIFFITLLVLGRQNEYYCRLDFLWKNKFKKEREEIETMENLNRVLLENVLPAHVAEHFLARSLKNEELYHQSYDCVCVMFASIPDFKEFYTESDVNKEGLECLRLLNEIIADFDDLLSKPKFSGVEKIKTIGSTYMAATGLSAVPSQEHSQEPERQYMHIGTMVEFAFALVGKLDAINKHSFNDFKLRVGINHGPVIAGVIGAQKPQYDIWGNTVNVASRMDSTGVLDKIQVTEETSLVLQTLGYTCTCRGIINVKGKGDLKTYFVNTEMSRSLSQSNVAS
T7 sequence (P63092 2-394 Q227L partner): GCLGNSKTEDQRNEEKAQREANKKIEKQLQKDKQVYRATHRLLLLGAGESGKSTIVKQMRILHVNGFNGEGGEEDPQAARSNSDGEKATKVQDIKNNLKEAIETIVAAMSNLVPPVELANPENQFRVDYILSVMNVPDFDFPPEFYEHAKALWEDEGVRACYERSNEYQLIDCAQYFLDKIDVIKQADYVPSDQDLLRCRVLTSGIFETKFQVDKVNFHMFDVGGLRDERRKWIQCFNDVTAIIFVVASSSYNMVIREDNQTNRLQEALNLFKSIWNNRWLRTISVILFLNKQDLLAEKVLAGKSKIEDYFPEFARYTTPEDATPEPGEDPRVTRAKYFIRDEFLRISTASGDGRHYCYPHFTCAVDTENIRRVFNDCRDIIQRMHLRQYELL

SMILES: CCCCCC/C=C\CCCCCCCCCC(=O)O [cis-Vaccenic acid, cis-Vaccenic ((11E)-octadecenoic) acid]
- Effect of lipid on 300 nM Gsα-stimulated mAC3 ([1]; 20 µM, in words): efficient enhancers
- mAC3 activity [%] (100% = 300nM Gsα stimulation) ([1]; fatty acid 20 µM, individual experiments): 429% and 498% and 460% and 363% and 411%
- mAC5 activity [%] (100% = 300nM Gsα stimulation) [2]: 124% and 95%
- mAC9 activity (%);(100% = Gsα stimulation) stimulated by 300nM Gsα ([3]; 6 µM fatty acid): 116% and 153% and 119% and 113%
- mAC9 activity (%);(100% = Gsα stimulation) stimulated by 300nM Gsα ([3]; 8 µM fatty acid): 174%
- EC50 ([3]; enhancement of 300 nM Gsα-stimulated activity, read-out: EC50 for mAC9): 8.5 µM
- mAC7 activity [%] (100% = 300nM Gsα stimulation); 20µM fatty acid concentration [4]: 148% and 179%
- mAC1 activity [%] (100% = 300nM Gsα stimulation); 20µM fatty acid concentration [5]: 61% and 67% and 86%
- mAC4 activity [%] (100% = 300nM Gsα stimulation); 20µM fatty acid concentration [6]: 78% and 66% and 107%
- Effect of lipid on 300 nM Gsα-stimulated mAC2 ([7]; 20 µM, in words): doubled
- mAC2 activity [%] (100% = 300nM Gsα stimulation); 20µM fatty acid concentration ([7]; Figure 5-figure supplement 1 left, 20 µM): 243% and 149% and 146% and 170% and 233%
- mAC2 activity (%);(100% = Gsα stimulation) stimulated by 300nM Gsα ([7]; cis-Vaccenic acid 1 µM): 120% and 97% and 119% and 112% and 115%
- mAC2 activity (%);(100% = Gsα stimulation) stimulated by 300nM Gsα ([7]; cis-Vaccenic acid 3 µM): 117% and 107% and 130% and 128% and 95%
- mAC2 activity (%);(100% = Gsα stimulation) stimulated by 300nM Gsα ([7]; cis-Vaccenic acid 6 µM): 93% and 112% and 130% and 120% and 121%
- mAC2 activity (%);(100% = Gsα stimulation) stimulated by 300nM Gsα ([7]; cis-Vaccenic acid 10 µM): 141% and 119% and 166% and 123% and 169%
- mAC2 activity (%);(100% = Gsα stimulation) stimulated by 300nM Gsα ([7]; cis-Vaccenic acid 20 µM): 146% and 170% and 233% and 243% and 149%
- EC50 ([7]; enhancement of 300 nM Gsα-stimulated activity): 10.6 µM
- activity at 0.3 µM ([7]; read-out: mAC2 activity (%);(100% = Gsα stimulation) stimulated by 300nM Gsα, cis-Vaccenic acid 0.3 µM): 100%
- mAC8 activity [%] (100% = 300nM Gsα stimulation) [8]: 107% and 123%
- mAC6 activity [%] (100% = 300nM Gsα stimulation) [9]: 91% and 114%
